Publication PMC8942850, “Boron clusters as broadband membrane carriers” (Nature, 2022)

Assays:
[1] = HPTS/DPX transport assay in zwitterionic EYPC vesicles; format: in vitro ADME; details: for Y Conventional / Y Reverse: Extended Data Fig. 4d; for Ymax (%) maximal activity, carrier activity: 13 µM lipid, 10 mM Tris, 107 mM NaCl, HPTS fluorescence
Protocol: The well-established HPTS/DPX assay, which uses 8-hydroxypyrene-1,3,6-trisulfonate (HPTS) and p-xylene-bis-pyridinium (DPX), was implemented to monitor peptide-transport activation (Fig. 2a). […] A surfactant (Triton X-100) was added at the end of the experiment (t = 600 s) to release all vesicle content and normalize the fluorescence intensity data.
Fig. 2 Carrier activity obtained from the HPTS/DPX assay. a, Schematic representation of the transport of otherwise impermeable analytes facilitated by superchaotropic cluster anions with encapsulated HPTS/DPX probe/quencher pair used for signalling. […] Concentrations of carrier and cargo, when fixed, were 40 and 20 µM, respectively, unless explicitly stated. Source data
A thin lipid film was prepared by evaporating a lipid solution with a stream of nitrogen and then dried in vacuo overnight.
Fluorescence intensities were normalized to fractional emission as I(t) = (It − I0)/(I∞ − I0), where I0 = It before cluster addition and I∞ = It after lysis.
In the activator measurements, in which different activators were tested with the same cargo, the activator efficiency (Ea) is determined from their ability to activate the transport of an impermeable cargo molecule and is characterized by Ymax, its maximal activity, and EC50, the effective activator concentration. A potent activator reaches high Ymax at low EC50. To reflect both factors, the activator efficiency is defined as Ea = Ymax × (pEC50/fa), where pEC50 is the negative logarithm of EC50.
In the transport measurements, in which different types of cargo were tested with the same activator, the transport efficiency (Et) reports on the sensitivity of the cargo for being transported and is described by Ymax, the maximal activity, and EC50, the effective cargo concentration. An easily accessible cargo reaches high Ymax at low EC50. The transport efficiency is defined as a composition of both parameters according to Et = Ymax × (pEC50/ft), where pEC50 is the negative logarithm of EC50.
Extended Data Fig. 3 Transport activity. a, Transport activity, Y, in EYPC⊃HPTS/DPX vesicles as a function of cluster concentration at constant cargo concentration (WR7, 20 µM). b, Transport activity, Y, for B12Br12^2− (40 µM) in EYPC⊃HPTS/DPX vesicles as a function of the concentration of different cargo types; red lines correspond to the resulting fit with the Hill equation. Source data

[2] = tested on: HeLa cells; experiment: Confocal imaging of TAMRA-R8 / TAMRA-D-R8 / TAMRA uptake in living cells
Source text: Representative images of two biological replicates. […] Scale bars, 50 μm.
Representative images of two biological replicates. […] Source data
(1 picture or pasted object on this page, not shown here)

[3] = tested on: HeLa cells; experiment: Cytosolic TAMRA-R8 concentration (digitonin fractionation, fluorescence); format: cell-based; details: Extended Data Fig.5d; for concentration_uM, mean: mean of 4 experiments
Protocol: Cytosolic extracts were obtained according to a previously described protocol[55] by incubation with digitonin, a steroidal saponin that preferentially permeabilizes cholesterol-rich membranes, such as the plasma membrane, with minor effects on intracellular membranes. […] Cells were incubated on ice with 600 µl of 35 µg ml^−1 digitonin in PBS Ca/Mg for 10 min, the supernatant with the cytosolic fraction collected and cells washed with 200 µl of PBS Ca/Mg, combining this supernatant with the previous extract. The non-cytosolic fraction was collected by incubation of the cells with 800 µl of 1% Triton X-100 in PBS. […] For the complementary HPLC analysis, phosphate buffer was replaced by TBS (20 mM Tris–HCl, pH 7.2, 150 mM NaCl, 0.5 mM CaCl2, 0.5 mM MgCl2) and digitonin extraction was performed as indicated above. An aliquot of these extracts was used for β-hexosaminidase activity determination. Cytosolic extracts were lyophilized and resuspended in 1:10 volumes of H2O:CH3CN 1:1 with 1% TFA, and analysed by HPLC (RP-HPLC Agilent Luna 5U C18 100 Å, H2O (0.1% TFA)/CH3CN (0.1% TFA) 100:0 (0→5 min); 100:0→5:95 (5→20 min)) by monitoring the 555-nm absorbance of the TAMRA chromophore.
The quality of fractionation was assessed by lysosomal β-hexosaminidase activity, using 4-nitrophenyl 2-acetamido-2-deoxy-β-D-glucopyranoside as substrate. Briefly, 20 µl of extract was incubated with 80 µl of 7.5 mM substrate in 100 mM citrate buffer, pH 4.7, for 40 min at 37 °C, and the reaction was stopped by addition of 200 µl of 0.2 M Tris solution. Absorbance at 405 nm was measured in a plate reader. As blank, wells containing only the substrate were used. […]

[4] = tested on: Escherichia coli Top10 strain; experiment: Kanamycin A delivery in E. coli (OD570 growth); format: cell-based; details: incubation with the cluster alone, up to 1 mM
Protocol: As a proof-of-principle, we investigated its potential to reduce the minimum inhibitory concentration of kanamycin A, an aminoglycoside antibiotic. Aminoglycosides function by binding to the bacterial 30S ribosomal subunit; consequently, effective passage through the cell wall and plasma membrane is essential for aminoglycosides to reach their intracellular targets. […]
A preculture of E. coli Top10 cells was incubated overnight in LB medium with 50 µg ml^−1 streptomycin sulfate. […] After 18 h, the optical density at 570 nm, as an indicator of bacterial growth, was measured with a Tecan Infinite F200Pro microplate reader. Data were normalized for each concentration of B12Br12^2− relative to the control condition without antibiotic.
Solid points indicate mean ± s.d. of three technical replicates. […] Cross-bars indicate mean ± s.d. of three independent experiments (two with technical triplicates, one with technical duplicates); values obtained in each experiment are represented by different shapes. c, Viability of HeLa cells after incubation with different doses of MMAF in the presence of 0, 5 and 10 μM B12Br12^2−. Solid points indicate mean ± s.d. of three technical replicates. d, Corresponding IC50 values of MMAF. […] Source data

B12Br12^2−
Ea activator efficiency ([1]; Ea = Ymax × (pEC50/fa), fa = 20.6, WR7 (20 μM) cargo, 10% error (SD)): 6.1
Y Conventional ([1]; [B12Br12] 1.00E-04 M): 0.7375
Y Reverse ([1]; [B12Br12] 1.00E-04 M): 0.7289
Y Conventional ([1]; [B12Br12] 1.00E-05 M): 0.08156
Y Reverse ([1]; [B12Br12] 1.00E-05 M): 0.07644
Y Conventional ([1]; [B12Br12] 1.00E-08 M): 0.00214
Y Reverse ([1]; [B12Br12] 1.00E-08 M): 9.09E-04
Y Conventional ([1]; [B12Br12] 1.20E-04 M): 0.8093
Y Reverse ([1]; [B12Br12] 1.20E-04 M): 0.8173
Y Conventional ([1]; [B12Br12] 1.50E-04 M): 0.8756
Y Conventional ([1]; [B12Br12] 2.00E-05 M): 0.1885
Y Reverse ([1]; [B12Br12] 2.00E-05 M): 0.1615
Y Conventional ([1]; [B12Br12] 2.50E-04 M): 0.8813
Y Reverse ([1]; [B12Br12] 2.50E-04 M): 0.8905
Y Conventional ([1]; [B12Br12] 3.00E-05 M): 0.3307
Y Reverse ([1]; [B12Br12] 3.00E-05 M): 0.3469
Y Conventional ([1]; [B12Br12] 4.00E-05 M): 0.4335
Y Conventional ([1]; [B12Br12] 5.00E-06 M): 0.03975
Y Conventional ([1]; [B12Br12] 6.00E-05 M): 0.5294
Y Reverse ([1]; [B12Br12] 6.00E-05 M): 0.5266
Y Conventional ([1]; [B12Br12] 8.00E-05 M): 0.6371
Ymax (%) maximal activity, carrier activity ([1]; carrier concentration varied, WR7 (20 μM) as common cargo, EYPC⊃HPTS/DPX vesicles, pH 7.4, Hill analysis, 10% error (SD) unless stated, n.a. = no detectable activity, d.l. = dye leakage, no determination possible): 95 ± 5%
Ymax (%) maximal activity, carrier activity ([1]; carrier concentration varied, WR7 (20 μM) as common cargo, EYPC⊃HPTS/DPX vesicles, pH 7.4, Hill analysis, 10% error (SD) unless stated, n.a. = no detectable activity, d.l. = dye leakage, no determination possible, listed as brominated cluster): 95%
EC50 ([1]; read-out: EC50 (μM) effective carrier concentration to reach 50% of Ymax, carrier concentration varied, WR7 (20 μM) as common cargo, EYPC⊃HPTS/DPX vesicles, pH 7.4, Hill analysis, 10% error (SD) unless stated, n.a. = no detectable activity, d.l. = dye leakage, no determination possible): 48 µM
TAMRA-R8 fluorescence pattern in cells in presence of cluster [2]: diffuse peptide fluorescence
concentration_uM ([3]; 0 uM B12Br12 (no carrier), experiment 1): 0.2863 µM
concentration_uM ([3]; 0 uM B12Br12 (no carrier), experiment 2): 0.345 µM
concentration_uM ([3]; 0 uM B12Br12 (no carrier), experiment 3): 0.2743 µM
concentration_uM ([3]; 0 uM B12Br12 (no carrier), experiment 4): 0.3423 µM
concentration_uM, mean ([3]; 0 uM B12Br12 (no carrier)): 0.312 µM
concentration_uM ([3]; 10 uM B12Br12, experiment 1): 1.393 µM
concentration_uM ([3]; 10 uM B12Br12, experiment 2): 1.647 µM
concentration_uM ([3]; 10 uM B12Br12, experiment 3): 1.247 µM
concentration_uM ([3]; 10 uM B12Br12, experiment 4): 1.117 µM
concentration_uM, mean ([3]; 10 uM B12Br12): 1.351 µM
Bacterial survival, cluster alone [4]: did not affect bacterial survival
